Experimental data: patent US20230320362A1, “COMPOSITION AND METHOD FOR WEED AND GRASS CONTROL” (United Industries Corporation, priority 2022, published 2023)

Tested on: Crimson Clover, Annual Rye Grass, Rescue Grass
Assay: Field experiment: early burndown and herbicidal efficacy of glufosinate + diquat compositions (FIGS. 3A-3C)
Type: in vivo
Conditions: burndown agent combined with glufosinate
Description: “Herbicidal efficacy” or “herbicidal effectiveness,” as used herein, refers to any observable measure of control of weed or grass growth, which can include one or more of the actions of (1) killing, (2) inhibiting growth, reproduction or proliferation, and (3) removing, destroying, or otherwise diminishing the occurrence and activity of weeds or grasses. The herbicidal effectiveness data set forth herein report “control” as a percentage following a standard procedure in the art which reflects a visual assessment of plant mortality and growth reduction by comparison with untreated plants, made by technicians specially trained to make and record such observations. In all cases, a single technician makes all assessments of percent control within any one experiment or trial.
Various examples and comparatives examples of the weed control compositions and RTU solutions were prepared according to Table 2. The RTU solutions were applied to test fields with various types of weeds and grasses, and the burndown effect and/or the long-term efficacy of the test RTU solutions are observed and compared. Equipment, sprayer, and selected operating conditions for application of the RTU compositions to the test areas are provided in Table 3.
All field experiments were set in 1 m^2 plots replicated four times in a randomized complete block design with appropriate industry standards and untreated controls. The example compositions and comparative example compositions according to Table 2 were tested in the field experiments. […] Plots were sprayed once, and then assessed for speed to visible activity, percent (%) weed control, and percent residual control over time to determine burndown activity, speed to kill, extended control and residual pre-emergent activity.
With CCCCCCCCC(=O)O.N [Ammonium nonanoate] the “burndown compared to glufosinate alone” value was “enhanced burndown compared to glufosinate alone” and the “effectiveness as burndown agent, ammonium nonanoate versus Diquat” value was “superior effectiveness compared to Diquat”.
With c1cc[n+]2c(c1)-c1cccc[n+]1CC2 [Diquat] the “burndown compared to glufosinate alone” value was “enhanced burndown compared to glufosinate alone”.

Tested on: weed or grass
Assay: not given
Conditions: Table 1 Notes; cited from earlier work
In the case of O=C(O)c1cc(Oc2ccc(C(F)(F)F)cc2Cl)ccc1[N+](=O)[O-] [Acifluorfen], the “residual activity (in words)” value is given as “No residual activity”.
In the case of Nc1c([N+](=O)[O-])ccc(Oc2ccccc2)c1Cl [Aclonifen], the “residual activity (in words)” value is listed as “Moderate residual activity”.
In the case of CCCCCCCCC(=O)O.N [Ammonium nonanoate], the “residual activity (in words)” value is listed as “Top kill, no residual activity”.
For Cc1ccc(C(=O)COc2c(C(=O)c3ccc(Cl)c(C)c3Cl)c(C)nn2C)cc1 [Benzafenap], the residual activity is given as 38 days residual activity.
For CS(=O)(=O)c1ccc(C(=O)C2=C(Sc3ccccc3)C3CCC(C3)C2=O)c(Cl)c1 (stereo not drawn) [Benzobicyclon], the residual activity is listed as 14 days residual activity.
In the case of COC(=O)c1cc(Oc2ccc(Cl)cc2Cl)ccc1[N+](=O)[O-] [Bifenox], the “residual activity (in words)” value is listed as “Six to eight weeks residual activity”.
For C=CCOC(=O)C(C)(C)OC(=O)c1cc(-n2c(=O)cc(C(F)(F)F)n(C)c2=O)ccc1Cl [Butafenacil], the “residual activity (in words)” value is given as “No residual activity”.
For CCCCCCCC(=O)O [Caprylic/octanoic acid], the “residual activity (in words)” value is given as “No residual activity”.
For CCOC(=O)C(Cl)Cc1cc(-n2nc(C)n(C(F)F)c2=O)c(F)cc1Cl (stereo not drawn) [Carfentrazone-ethyl], the “residual activity (in words)” value is given as “No residual activity”.
For CCOC(=O)/C(Cl)=C/c1cc(N2C(=O)C3=C(CCCC3)C2=O)ccc1Cl [Cinidon-ethyl], the “residual activity (in words)” value is given as “No residual activity”.
For c1cc[n+]2c(c1)-c1cccc[n+]1CC2 [Diquat], the “residual activity (in words)” value is listed as “No residual activity”.
For CCOC(=O)COc1cc(-n2ncc(C(F)(F)F)c(C)c2=O)c(F)cc1Cl [Flufenpyr-ethyl], the “residual activity (in words)” value is given as “No residual activity”.
In the case of CCCCCOC(=O)COc1cc(N2C(=O)C3=C(CCCC3)C2=O)c(F)cc1Cl [Flumiclorac pentyl], the “residual activity (in words)” value is given as “No residual activity”.
For C#CCN1C(=O)COc2cc(F)c(N3C(=O)C4=C(CCCC4)C3=O)cc21 [Flumioxazin], the “residual activity (in words)” value is listed as “One to two weeks residual”.
In the case of CCOC(=O)COC(=O)c1cc(Oc2ccc(C(F)(F)F)cc2Cl)ccc1[N+](=O)[O-] [Fluoroglycofen-ethyl], the “residual activity (in words)” value is listed as “No residual activity”.
For COC(=O)CSc1cc(/N=c2\sc(=O)n3n2CCCC3)c(F)cc1Cl [Fluthiacet-methyl], the “residual activity (in words)” value is listed as “No residual activity”.
For CS(=O)(=O)NC(=O)c1cc(Oc2ccc(C(F)(F)F)cc2Cl)ccc1[N+](=O)[O-] [Fomesafen], the residual activity is listed as 12-month residual activity.
For CP(=O)(O)CCC(N)C(=O)O (stereo not drawn) [Glufosinate], the “residual activity (in words)” value is listed as “Kills shoots and roots, short residual activity”.
For Cc1cnc(C2=NC(=O)C(C)(C(C)C)N2)c(C(=O)O)c1 (stereo not drawn) [Imazapic], the “residual activity (in words)” value is given as “Four months residual activity”.
In the case of CC(C)C1(C)N=C(c2ncccc2C(=O)O)NC1=O (stereo not drawn) [Imazapyr], the “residual activity (in words)” value is given as “Four months residual activity”.
For CCc1cnc(C2=NC(C)(C(C)C)C(=O)N2)c(C(=O)O)c1 (stereo not drawn) [Imazethapyr], the “residual activity (in words)” value is given as “Two to three months residual”.
For CC(C)N(C(=O)n1cnn(-c2ccc(Cl)cc2Cl)c1=O)c1ccc(F)cc1F [Ipfencarbazone], the residual activity is given as 70 days residual activity.
In the case of CS(=O)(=O)c1cc(C(F)(F)F)ccc1C(=O)c1cnoc1C1CC1 [Isoxaflutole], the “residual activity (in words)” value is given as “No residual activity”.
For CCOC(=O)C(C)OC(=O)c1cc(Oc2ccc(C(F)(F)F)cc2Cl)ccc1[N+](=O)[O-] (stereo not drawn) [Lactofen], the residual activity is given as “Very short residual activity (2-3 weeks)”.
In the case of CS(=O)(=O)c1ccc(C(=O)C2C(=O)CCCC2=O)c([N+](=O)[O-])c1 [Mesotrione], the residual activity is listed as “Limited residual activity (6-15 days)”.
In the case of CC(C)Oc1cc(-n2nc(C(C)(C)C)oc2=O)c(Cl)cc1Cl [Oxadiazon], the residual activity is given as “Moderate residual activity (2 months)”.
For CCOc1cc(Oc2ccc(C(F)(F)F)cc2Cl)ccc1[N+](=O)[O-] [Oxyfluorfen], the residual is listed as “Kills shoots and roots, 30 d residual”.
In the case of CCCCCCCCC(=O)O [Pelargonic acid], the “residual activity (in words)” value is listed as “No residual activity”.
For CC(C)=C1OC(=O)N(c2cc(OC3CCCC3)c(Cl)cc2F)C1=O [Pentoxazone], the “residual activity (in words)” value is listed as “No residual activity”.
In the case of CCOC(=O)COc1cc(-c2nn(C)c(OC(F)F)c2Cl)c(F)cc1Cl [Pyraflufen-ethyl], the “residual activity (in words)” value is listed as “Burndown activity with no residual”.
For Cc1nn(C)c(OCC(=O)c2ccccc2)c1C(=O)c1ccc(Cl)cc1Cl [Pyrazoxyfen], the residual activity is listed as 4-15 days residual activity.
For CC(C)N(C)S(=O)(=O)NC(=O)c1cc(-n2c(=O)cc(C(F)(F)F)n(C)c2=O)c(F)cc1Cl [Saflufenacil], the “residual activity (in words)” value is listed as “No residual activity”.
For CS(=O)(=O)c1ccc(C(=O)C2C(=O)CCCC2=O)c(Cl)c1 [Sulcotrione], the “residual activity (in words)” value is given as “No residual activity”.
In the case of CS(=O)(=O)c1ccc(C(=O)C2C(=O)CCCC2=O)c(Cl)c1COCC(F)(F)F [Tembotrione], the residual activity is given as 14 days residual activity.
For COC(=O)CCNC(=O)C(C)Sc1cc(-n2c(=O)cc(C(F)(F)F)n(C)c2=O)c(F)cc1Cl (stereo not drawn) [Tiafenacil], the “residual activity (in words)” value is given as “Burndown with no residual activity”.
For Cc1c(C(=O)c2cnn(C)c2O)ccc(S(C)(=O)=O)c1C1=NOCC1 [Topramezone], the residual activity is given as 14 days residual activity.
In the case of C#CCN1C(=O)C(F)(F)Oc2cc(F)c(-n3c(=O)n(C)c(=S)n(C)c3=O)cc21 [Trifludimoxazin], the residual activity is listed as “Short residual activity of 40 days”.
For Capric/decanoate acid of salt thereof, the “residual activity (in words)” value is listed as “No residual activity”.
In the case of Oxadiargyl, the “residual activity (in words)” value is given as “Pre-emergent active”.
